# Experiments:
# [1] = Pharmacokinetic evaluation of asenapine and asenapine prodrugs in rats; type: in vivo, Sprague-Dawley rats; conditions: rat plasma, 10 mg/rat IM, suspension in 1% HPMC in PBS saline with 0.2% Tween pH 6.0; FIG. 3
# Method: Animals: 18 Male Sprague-Dawley rats (Charles River Laboratories, Wilmington, Mass.) were used in the study. Three groups of 6 rats were used and are referred to in this study as Groups A, B and C. Rats were approximately 350-375 g at time of arrival. Rats are housed 2 per cage with ad libitum chow and water. Environmental conditions in the housing room: 64-67° F., 30% to 70% relative humidity, and 12:12-h light:dark cycle. All experiments were approved by the institutional animal care and use committee.
# Test Compounds: The following formulations of Asenapine parent drug and prodrug compounds of the invention were used in the study.
# Pharmacokinetics study: Rats were dosed IM by means of a 23 gauge, 1 in. needle with 1 cc syringe 0.3 mL suspension was withdrawn from the vial containing the test compound. The rat was injected in the muscles of the hind limb after anesthesia with isoflourane. Blood samples were collected via a lateral tail vein after brief anesthesia with Isoflurane. A 27½G needle and 1 cc syringe without an anticoagulant was used for the blood collection. […]
# Data Analysis: Drug concentrations in plasma samples were analyzed by liquid chromatography—mass spectroscopy using appropriate parameters for each compound. Half-life, volume of distribution, clearance, maximal concentration, and AUC were calculated by using WinNonlin version 5.2 software (Pharsight, St. Louis, Mo.).
# muscarinic receptors = conditions: background; cited from earlier work
# [2] = tested on: serotonergic (5-HT2A, 5-HT2C, 5-HT6, 5-HTS), noradrenergic (α2A, α2B, α2C) and dopaminergic (D3, D4) receptors; conditions: background; cited from earlier work
# [3] = Solution stability of asenapine prodrugs as a function of pH; type: physicochemical; conditions: 0.01M buffers pH 2.11-9.01, 25° C., HPLC after 1, 4, 10 and 24 hours; FIG. 1 and 2
# Method: The asenapine derived prodrugs were prepared at approximately 300 ug/mL in buffers (see table of buffers below). The initial ratio of prodrug/parent was measured using a freshly prepared solution in unbuffered water. Acetonitrile was titrated into all samples as needed to ensure the complete dissolution of the compounds. The amount of acetonitrile varied depending on the solubility of each compound (see Note 1). 1.5 mL of each stability sample was transferred into a HPLC vial and the vials were maintained at 25° C. in the temperature controlled sample compartment of the HPLC. Each sample was assayed by HPLC after 1, 4, 10, and 24 hours for prodrug and asenapine content (see Note 2).
# The fraction of prodrug remaining at each time point was calculated as;
# Fraction Prodrug=(HPLC Area of Prodrug)/(HPLC area of prodrug+asenapine) (see Note 3).
# The loss of prodrug was then fit to the equation for first order decay:
# Fraction Prodrug=(Initial Fraction prodrug)*e^−kt
# where t=time (in hours) and k is the rate constant for decay. Finally, the half-lives are were calculated as
# Note 1: The acetonitrile concentration is not expected to have a large impact on the degradation rate since the rate follows first order decay with respect to compound (ie, the rate constant is independent of the concentration). […]
structure (smiles),measurement,setting,value
"CCC(C)(C)C(=O)OC[N+]1(C)CC2c3ccccc3Oc3ccc(Cl)cc3C2C1.[I-] (stereo not shown) [ASN-83, Asenapine dimethyl butyrate prodrug]",Cmax,[1],lower than the Cmax of the parent Asenapine formulation as well as lower than that of the Asenapine palmitate prodrug (ASN-76)
CN1CC2c3ccccc3Oc3ccc(Cl)cc3C2C1 (stereo not shown) [Asenapine],Affinity,muscarinic receptors,minimal affinity
same,Affinity relative to D2 receptors,[2],higher affinity
CC(C)(C)C(=O)OC[N+]1(C)CC2c3ccccc3Oc3ccc(Cl)cc3C2C1.[Cl-] (stereo not shown) [asenapine pivalate],Solution stability (loss of prodrug to asenapine),[3],more stable than the asenapine octanoate

# Source: patent publication US20110166194A1, “Asenapine Prodrugs” (Alkermes, Inc., priority 2010, published 2011)
